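48-hour exposure; five concentrations; linearly interpolated endpoints. GI50 = concentration required for 50% inhibition of growth.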 Activity calls are given as the source filed them. Cut-off read from the data, not from the text of the source: active = GI50 up to about 1.1 µM and inactive = higher.
Key:
Experiment in all cases: NCI tumour cell line growth inhibition, 48 h
[1] = test system: LOX IMVI
[2] = test system: DMS-273
[3] = test system: SNB-78
[4] = test system: 786-0
[5] = test system: DMS-114
[6] = test system: EKVX
[7] = test system: SK-OV-3
[8] = test system: HL-60
[9] = test system: KM-20L2
[10] = test system: OVCAR-4
[11] = test system: NCI-H460
[12] = test system: NCI-H23
[13] = test system: HT-29
[14] = test system: CCRF-CEM
[15] = test system: HOP-62
[16] = test system: HCT-116
[17] = test system: NCI-H226
[18] = test system: UO-31
[19] = test system: HOP-18
[20] = test system: HCC 2998
[21] = test system: MOLT-4
[22] = test system: SK-MEL-28
[23] = test system: SR
[24] = test system: A549
[25] = test system: SF-295
[26] = test system: NCI-H522
[27] = test system: SW-620
[28] = test system: HCT-15
[29] = test system: SNB-75
[30] = test system: SK-MEL-5
[31] = test system: KM12
[32] = test system: UACC-62
[33] = test system: HOP-92
[34] = test system: RXF 393
[35] = test system: SNB-19
[36] = test system: CAKI-1
[37] = test system: XF498
[38] = test system: Malme-3M
[39] = test system: K562
[40] = test system: DLD-1
[41] = test system: M14
[42] = test system: TK-10
[43] = test system: A498
[44] = test system: SF-268
[45] = test system: IGROV-1
[46] = test system: SN12C
[47] = test system: U-251
[48] = test system: OVCAR-5
[49] = test system: RPMI-8226
[50] = test system: M19-MEL
[51] = test system: OVCAR-8
[52] = test system: SK-MEL-2
[53] = test system: SF-539
[54] = test system: LXFL 529
[55] = test system: ACHN
[56] = test system: OVCAR-3
[57] = test system: UACC-257
[58] = test system: RXF 631
[59] = test system: COLO 205

NC(=O)N/N=C(\Cc1nc2ccc(C(=O)c3ccccc3)cc2nc1O)C(=O)Nc1ccc(Br)cc1
GI50 [1]: > 100 µM (inactive)
GI50 [2]: > 100 µM (inactive)
GI50 [3]: > 100 µM (inactive)
GI50 [4]: > 100 µM (inactive)
GI50 [5]: > 100 µM (inactive)
GI50 [6]: > 100 µM (inactive)
GI50 [7]: > 100 µM (inactive)
GI50 [8]: > 100 µM (inactive)
GI50 [9]: > 100 µM (inactive)
GI50 [10]: > 100 µM (inactive)
GI50 [11]: > 100 µM (inactive)
GI50 [12]: > 100 µM (inactive)
GI50 [13]: > 100 µM (inactive)
GI50 [14]: > 100 µM (inactive)
GI50 [15]: > 100 µM (inactive)
GI50 [16]: > 100 µM (inactive)
GI50 [17]: 86.3 µM (inactive)
GI50 [18]: > 100 µM (inactive)
GI50 [19]: > 100 µM (inactive)
GI50 [20]: > 100 µM (inactive)
GI50 [21]: > 100 µM (inactive)
GI50 [22]: > 100 µM (inactive)
GI50 [23]: > 100 µM (inactive)
GI50 [24]: > 100 µM (inactive)
GI50 [25]: > 100 µM (inactive)
GI50 [26]: > 100 µM (inactive)
GI50 [27]: > 100 µM (inactive)
GI50 [28]: > 100 µM
GI50 [29]: > 100 µM (inactive)
GI50 [30]: > 100 µM (inactive)
GI50 [31]: > 100 µM (inactive)
GI50 [32]: > 100 µM (inactive)
GI50 [33]: > 100 µM (inactive)
GI50 [34]: > 100 µM (inactive)
GI50 [35]: > 100 µM (inactive)
GI50 [36]: > 100 µM (inactive)
GI50 [37]: > 100 µM (inactive)
GI50 [38]: > 100 µM (inactive)
GI50 [39]: > 100 µM (inactive)
GI50 [40]: > 100 µM (inactive)
GI50 [41]: > 100 µM (inactive)
GI50 [42]: > 100 µM (inactive)
GI50 [43]: > 100 µM (inactive)
GI50 [44]: > 100 µM (inactive)
GI50 [45]: > 100 µM (inactive)
GI50 [46]: > 100 µM (inactive)
GI50 [47]: > 100 µM (inactive)
GI50 [48]: > 100 µM (inactive)
GI50 [49]: > 100 µM (inactive)
GI50 [50]: > 100 µM (inactive)
GI50 [51]: > 100 µM (inactive)
GI50 [52]: > 100 µM (inactive)
GI50 [53]: > 100 µM (inactive)
GI50 [54]: > 100 µM (inactive)
GI50 [55]: > 100 µM (inactive)
GI50 [56]: > 100 µM (inactive)
GI50 [57]: > 100 µM (inactive)

CCOC(=O)C1C(=O)CC(=O)C2CCCCC21 (centres undefined)
GI50 [1]: > 100 µM (inactive)
GI50 [2]: > 100 µM (inactive)
GI50 [3]: > 100 µM (inactive)
GI50 [4]: > 100 µM (inactive)
GI50 [5]: > 100 µM (inactive)
GI50 [6]: > 100 µM (inactive)
GI50 [7]: > 100 µM (inactive)
GI50 [8]: > 100 µM (inactive)
GI50 [10]: > 100 µM (inactive)
GI50 [11]: > 100 µM (inactive)
GI50 [12]: > 100 µM (inactive)
GI50 [58]: > 100 µM (inactive)
GI50 [14]: > 100 µM (inactive)
GI50 [15]: > 100 µM (inactive)
GI50 [16]: > 100 µM (inactive)
GI50 [18]: > 100 µM (inactive)
GI50 [21]: > 100 µM (inactive)
GI50 [22]: > 100 µM (inactive)
GI50 [24]: > 100 µM (inactive)
GI50 [25]: > 100 µM (inactive)
GI50 [26]: > 100 µM (inactive)
GI50 [59]: > 100 µM (inactive)
GI50 [27]: > 100 µM (inactive)
GI50 [28]: > 100 µM
GI50 [29]: > 100 µM (inactive)
GI50 [30]: > 100 µM (inactive)
GI50 [31]: > 100 µM (inactive)
GI50 [32]: > 100 µM (inactive)
GI50 [33]: > 100 µM (inactive)
GI50 [34]: > 100 µM (inactive)
GI50 [35]: > 100 µM (inactive)
GI50 [36]: > 100 µM (inactive)
GI50 [37]: > 100 µM (inactive)
GI50 [38]: > 100 µM (inactive)
GI50 [39]: > 100 µM (inactive)
GI50 [40]: > 100 µM (inactive)
GI50 [41]: > 100 µM (inactive)
GI50 [42]: > 100 µM (inactive)
GI50 [43]: > 100 µM (inactive)
GI50 [44]: > 100 µM (inactive)
GI50 [45]: > 100 µM (inactive)
GI50 [46]: > 100 µM (inactive)
GI50 [47]: > 100 µM (inactive)
GI50 [48]: > 100 µM (inactive)
GI50 [49]: > 100 µM (inactive)
GI50 [51]: > 100 µM (inactive)
GI50 [52]: > 100 µM (inactive)
GI50 [53]: > 100 µM (inactive)
GI50 [54]: > 100 µM (inactive)
GI50 [55]: > 100 µM (inactive)
GI50 [56]: > 100 µM (inactive)
GI50 [57]: > 100 µM (inactive)

— ChEMBL document CHEMBL1201862, “PubChem BioAssay data set” (2004)
